{
  "source": "patent US6569902B2",
  "about": "“Nitrone inhibition of cancer development” (Oklahoma Medical Research Foundation, priority 2000, dated 2003)",
  "key": {"[1]": {"conditions": "cited from earlier work"}, "[2]": {"test_system": "GST-P-positive lesions in livers of male Wistar rats fed the CDAA diet", "assay": "Example 2: numbers and sizes of GST-P-positive liver lesions, CDAA diet for 16 weeks", "type": "in vivo, rat", "conditions": "high dose 0.090% in CDAA diet", "procedure": "Animals. A total of 110 male Wistar rats were obtained at 5 weeks of age from Charles River Japan, Inc., Atsugi, Kanagawa, Japan. Experimentation began after a 1-week acclimation on a basal diet (CE-2 diet, Clea Japan, Meguro, Tokyo, Japan). Rats were housed 5 each in plastic cages with white flake bedding (Kansai Animal Corp., City of Kyoto, Kyoto, Japan) in a standard atmosphere (temperature, 25±3° C.; relative humidity, 55±8%; ventilation, 10-15/hour; and a 12-hour dark/light cycle). Free access to food and tap water was allowed throughout the acclimation and experimental periods.\nDiets and chemicals. The CDAA diet and its control, a choline-supplemented, L-amino acid-defined (CSAA) diet (Nakae et al. 1992; and Nakae et al. 1990) were obtained from Dyets, Inc., Bethlehem, Pa. […] 2-Sulfoxy-PBN (2-SPBN) was purchased from Aldrich Chemical Co. (Milwaukee, Wis.).\nAnimal experiment. After acclimation, rats were divided equally into 22 groups consisting of 5 animals each. Animals in group 1 received the CDAA diet alone. […] Groups 5-7, 8-10, 11-13 and 14-16 received the CDAA diet containing the low, middle, and high doses of 4-OHPBN, 3-OHPBN, 2-OHPBN and 2-SPBN, respectively. Group 17 received the CSAA diet alone. […] All animals were sacrificed by exsanguination under light ether anesthesia 16 weeks after commencement, and the livers excised. Slices 5-mm-thick were taken from the left lateral, median and right lateral lobes of the livers, fixed in 10% neutrally-buffered formalin for 24 hours and then embedded in paraffin. Five serial 4-μm-thick sections were prepared from each fixed liver slice and used for histological and immunohistochemical assessment as described below. The remaining portions of the livers were immediately frozen under liquid nitrogen and stored at −80° C. until use.\nHistological and immunohistochemical assessments. Histological assessment was performed using sections routinely stained with hematoxylin/eosin and Masson's trichrome procedures. Gradation of fibrosis was quantitatively evaluated in groups 1, 4, 7, 10, 13, 16 and 17 by calculating the percent area occupied by collagen fiber stained blue by Masson's trichrome method using an IPAP image analyzing system (Sumika Technoservice Corp., City of Osaka, Osaka, Japan). GST-P-positive lesions were visualized immunohistochemically. Lesions consisting of more than 6 cells were quantified using the IPAP system as described elsewhere (Kishida et al. 2000). The amount of apoptosis and the cellular proliferative activity were determined in groups 1, 4, 7, 10, 13, 16 and 17, using the double staining techniques by combination of the GST-P immunohistochemistry as above with the in situ terminal deoxynucleotidyl transferase-mediated dUTP-biotin nick end-labeling method (Gold et al. 1994) and the enhanced polymer one-step staining method for proliferating cell nuclear antigen (Tsutsumi et al. 1995), respectively. Numbers of apoptotic and proliferating hepatocytes among the 1000-5000 hepatocytes in GST-P-positive lesions and 5000 hepatocytes in surrounding tissue were counted under light microscopy to obtain percentages that are hereafter referred as apoptotic and proliferative indices, respectively.\nStatistics. Inter-group differences in quantitative data for multiple groups were recognized to be significant, when p values smaller than 0.05 were obtained by the Dunnett multiple comparison test employed after one-way analysis of variance to determine the variation among the group means followed by the Bartlett's test to determine the homogeniety of variance."}},
  "data": [
    {"compound": "CC(C)(C)[N+]([O-])=Cc1ccccc1", "note": "[PBN, phenyl N-tert-butyl nitrone]", "values": [
      {"measurement": "half-life", "setting": "[1]; in rats", "result": "about 132 minutes"},
      {"measurement": "tissue distribution", "setting": "[1]; rat, in vivo", "result": "readily and rapidly distributed almost equally to all tissues"},
      {"measurement": "number of GST-P-positive lesions, % of the group 1 value", "setting": "[2]", "result": 52, "unit": "%"},
      {"measurement": "sizes of GST-P-positive lesions, % of the group 1 value", "setting": "[2]", "result": 19, "unit": "%"}
    ]}
  ]
}
